“And” between values parts separate entries of the source, which are not always exact repeats. Identical values can stand only once.
Legend:
[1] = target: nuclease (Homo sapiens, UniProt P03950); test: Ki of Lead 1 and Lead 2 analogs (Tables 1 and 2); type: biochemical; settings: Table 1, Lead 1 Analog List
[2] = system: RNase A, 1, and T1; test: Anti-RNase antibodies / Specific Anti-RNase Cocktail with added non-antibody inhibitor; type: biochemical; settings: for effect on action of Specific Anti-RNase Cocktail against RNase A, 1, and T1: detergent added to cocktail at 0.1% to 1%
Method: (§1) The activity of an anti-nuclease cocktail is readily determined using radiolabeled RNA or DNA to detect the inhibition of nuclease by anti-nuclease antibodies in the anti-nuclease cocktail. […] Assay buffer, nuclease and an anti-nuclease cocktail are then added to 0.5 ml microfuge tubes. A mixture comprising assay buffer, RNA or DNA and radiolabeled RNA or DNA is added to the microfuge tubes, and the tubes are vortexed and microfuged. After incubation of the tubes at 37° C. for 30 minutes, a portion of the tube contents is removed and placed into gel loading buffer. After mixing, the combination is loaded onto a gel, typically a 8M urea/5% acrylamide gel, which is exposed to film.
(§2) Radiolabeled RNA was used to detect the inhibition of RNase A, RNase T1, and RNase 1 by specific antibodies.
(§3) The “MIX” was prepared by combining 10× Assay Buffer (0.9 μl/rxn), 5 mg/ml yeast RNA (0.4 μl/rxn), ^32P-labeled β actin RNA (1 μl/rxn), and nuclease-free H2O (6.7 μl/rxn), for a total of 9 μl/rxn.
(§4) 1× Assay Buffer was added first. Then Specific RNase Cocktail, Specific Anti-RNase Cocktail and MIX were added. The tubes are vortexed and microfuged, then incubated at 37° C. for 30 min (Table 9).
(§5) At the end of the incubation time, 10 μl of solution was removed from the tube and placed into 10 μl Gel Loading Buffer II. The combination was mixed thoroughly and loaded onto a 8M urea/5% acrylamide gel. The gel was exposed to film for 30 min. at −80° C. with an intensifying screen.

[3] = target: T1, RNase A (Bos taurus, UniProt P61823); test: Radiolabeled RNA probe degradation gel assay, RNase A; type: biochemical
T1 sequence (P61823 27-150): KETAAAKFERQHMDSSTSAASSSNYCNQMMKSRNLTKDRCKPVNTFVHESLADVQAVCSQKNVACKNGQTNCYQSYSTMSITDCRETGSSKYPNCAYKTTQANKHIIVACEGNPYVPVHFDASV
Method: as §1, §2, §3, §4, §5

[4] = target: DNase I (Bos taurus, UniProt P00639); test: Lambda DNA digestion assay with DNase I; type: biochemical; settings: 0.1 U DNase, inhibitor at 5×Ki
Excerpt: One application for small molecule RNase inhibitors is as an RNA control agent during enzymatic manipulation of solutions containing RNA. These reactions include in vitro transcription, in vitro translation, DNase digestion, and reverse transcription, among others. […] […] […] All reactions were quenched with EDTA and the cleavage products resolved on a 1% agarose gel.
As a result, compounds such as #467929, 140553, and 180582 may have utility in curbing the activity of residual RNases that may carry over from RNA isolation methods during DNase treatments of the RNA.

[5] = target: MMLV RT RNase H (Moloney murine leukemia virus, UniProt P03355); test: RT-based RNase H cleavage of RNA:DNA hybrid; type: biochemical
Method: As described above, Chembridge compound #467929 offered protection from several RNA-specific endonucleolytic activities. […] A 20-mer DNA oligonucleotide was asymmetrically annealed to a 1500 base synthetic RNA to create an RNA:DNA duplex substrate for RNase H. Reactions were initiated with 10 U of MMLV RT in 1× RT buffer (50 mM TrisCl pH 8.3, 75 mM KC, 3 mM MgCl2, 5 mM DTT) containing 500 ng/ul RNA:DNA hybrid. All reactions contained 5% DMSO either with or without the small molecule RNase inhibitor. Samples were incubated for 5 min at 37 C, and quenched with EDTA. Products were resolved on an RNA LabChip. Cleavage products were observed as two equally represented RNA species of 1000 and 500 bases. Product length and yield were determined using the 2100 BioAnalyzer software (Agilent). Table 18 details the level of inhibition of MMLV RT RNase H that is observed as a function of the concentration of compounds 467929 and 227726.

[6] = system: one-step RT-PCR with MMLV-RT and SuperTaq, human CDC-2 mRNA; test: One-step qRT-PCR tolerance, human CDC-2; type: biochemical
Method: The compatibility of #467929 and 227726 were tested in Ambion's MessageSensor RT-PCR Kit according to the supplier's instructions and using primers/probe designed to amplify a ˜100 nt amplicon from the human CDC-2 mRNA. The reaction conditions were: 20-ul one-step RT-PCR with MMLV-RT (0.4 U/ul final) and SuperTaq (0.04 U/ul final). The cycling conditions were: Stage 1. 42 C for 15 minutes Stage 2. 95 C for 5 min, Stage 3. 95 C-15 sec and 60 C-60 sec where Stage 3 is repeated 40 times. The input template was HeLa-S3 total RNA at either 1 ng or 10 ng/reaction. […] Consequently, these compounds may have utility in controlling any RNA degradation that might occur during the cDNA synthesis step of RT-PCR.

[7] = system: diluted pancreas lysate; test: Intactness of total RNA (RNA LabChip), diluted pancreas lysate; type: biochemical, mouse
Method: A total of 100 pg/ul e. […].
Pancreatic lysate (0.1 mg/ml) was diluted 1:20,000 in 24 mM Hepes, pH 7.2, 50 mM NaCl, 1 mM MgCl2 and pre-incubated with either 1% SDS or 6.25 mM OVA for 30 s prior to the addition of 2 ug mouse liver total RNA. Reactions were incubated at 25 C for an additional 4 min, quenched, and analyzed on an RNA LabChip.
Mouse pancreatic tissue (5 mg) was disrupted in 50 ul of 24 mM Hepes, pH 7.2, 50 mM NaCl, 1 mM MgCl2. The diluted lysate (1:20,000) was pre-incubated with 50 uM Benzopurpurin B (BpB) for 30 sec and then added to 100 ng/ul mouse liver total RNA (Ambion) and incubated at 23 C for an additional 4 min. Samples were quenched in a guanidinium lysis buffer, and the RNA purified via MEGAclear™ MAG-96 and eluted with 20 ul nuclease-free water. […] These experiments were conducted in the same fashion except that 100 uM BpB was employed. The sample (1 ul) was analyzed by 2100 BioAnalyzer software (Agilent) after separation on an RNA LabChip.
Mouse pancreatic tissue (5 mg) was dounced in 50 ul of 24 mM Hepes, pH 7.2, 50 mM NaCl, 1 mM MgCl2. A diluted lysate (1:20,000) was pre-incubated with 100 uM BpB or the analog Benzopurpurin 4B (Bp4B) for 30 sec and then added to 100 ng/ul mouse liver total RNA (Ambion) and incubated at 23 C for an additional 4 min. Samples were quenched in a guanidinium lysis buffer, and the RNA purified via MEGAclear™ MAG-96 and eluted with 20 ul nuclease-free water. The sample (1 ul) was analyzed by 2100 BioAnalyzer software (Agilent) after separation on an RNA LabChip.
Pancreatic tissue (5 mg) was dounced in 50 ul of 24 mM Hepes, pH 7.2, 50 mM NaCl, 1 mM MgCl2. The lysate was diluted (1:20,000) and then pre-incubated with 200 uM of 467929. […] All samples were pre-incubated for 30 sec before being added to 100 ng/ul mouse liver total RNA (Ambion) and incubated at 23C for an additional 4 min. The RNA was then immediately purified via MEGAclear™ MAG-96 and eluted with 20 ul nuclease-free water. The recovered RNA (1 ul) was analyzed by 2100 BioAnalyzer software after separation on an RNA LabChip.

Chain of nuclease (P03950 25-147): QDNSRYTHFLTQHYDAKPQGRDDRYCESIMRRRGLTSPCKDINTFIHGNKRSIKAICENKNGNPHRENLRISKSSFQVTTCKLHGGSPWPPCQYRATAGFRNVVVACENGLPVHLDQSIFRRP
Chain of DNase I (P00639 23-282): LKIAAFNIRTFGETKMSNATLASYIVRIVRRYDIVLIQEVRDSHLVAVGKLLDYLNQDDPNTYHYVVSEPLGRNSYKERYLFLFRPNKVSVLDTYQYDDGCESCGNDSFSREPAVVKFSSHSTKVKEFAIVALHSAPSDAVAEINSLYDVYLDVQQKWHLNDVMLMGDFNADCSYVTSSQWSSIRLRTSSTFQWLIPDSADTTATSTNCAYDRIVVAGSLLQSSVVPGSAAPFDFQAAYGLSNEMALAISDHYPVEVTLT

eriochrome black T [erio-chromeblack T]
Ki [1]: 50 µM

NC(N)=O [urea]
effect on action of Specific Anti-RNase Cocktail ([2]; 6 M urea added to cocktail): Anti-Rnase Cocktail strengthened the action of Specific Anti-RNase Cocktail.
concentration that inhibited RNase A activity [3]: 6 M urea inhibited RNase A activity. This concentration of urea added to the Specific

CC(=O)Nc1ccc(N=Nc2c(S(=O)(=O)O)cc3cc(S(=O)(=O)O)cc(NC(C)=O)c3c2O)cc1 [acid violet7, acid violet 7]
Ki [1]: 71 µM

Nc1cccc(C(=O)Nc2ccc3c(O)cc(S(=O)(=O)O)cc3c2)c1 [compound 1743]
KI [1]: in-activeat 75uM

Triton X-100
effect on action of Specific Anti-RNase Cocktail against RNase A, 1, and T1 [2]: strengthened the action of Specific Anti-Rnase Cocktail against RNase A, 1, and T1.

[Cl-].[Cl-].[Mg+2] [MgCl2]
effect of mixing with Specific Anti-RNase Cocktail ([2]; MgCl2 mixed together with cocktail): best

O=C(Nc1ccc(/N=N/c2ccc3cc(S(=O)(=O)O)cc(S(=O)(=O)O)c3c2)cc1)c1ccc(/N=N/c2c(O)ccc3cc(S(=O)(=O)O)cc(S(=O)(=O)O)c23)cc1 [compound 65841]
Ki [1]: 5 µM

Nc1c(OCC(=O)O)ccc2cc(S(=O)(=O)O)ccc12 [compound 16163]
KI [1]: in-activeat 75uM

O=S(=O)(O)c1cc(O)c2c(/N=C/c3ccccc3O)cc(S(=O)(=O)O)cc2c1 [compound 88947]
KI [1]: in-activeat 75uM

NP-40
effect on action of Specific Anti-RNase Cocktail against RNase A, 1, and T1 [2]: strengthened the action of Specific Anti-Rnase Cocktail against RNase A, 1, and T1.

O=C(N/N=C(\c1ccccc1)c1ccncc1)c1ccccc1 [compound 227726, N′-[phenyl(4-pyri-dinyl)meth-ylene]benzohydrazide]
DNase inhibition [4]: modestly inhibitory
% Cleavage ([5]; inhibitor 100 uM): 45%
% Cleavage ([5]; inhibitor 524 uM): 43%
% Cleavage ([5]; inhibitor 1000 uM): 47%
concentration tolerated in RT-PCR [6]: at least 1.3 mM
Cycle Threshold ([6]; Input RNA = 1 ng, inhibitor 130 uM): 26.01 and 26.08
Cycle Threshold ([6]; Input RNA = 1 ng, inhibitor 655 uM): 26.14 and 26.18
Cycle Threshold ([6]; Input RNA = 1 ng, inhibitor 1.3 mM): 26.08 and 26.18
Cycle Threshold ([6]; Input RNA = 10 ng, inhibitor 130 uM): 23.18 and 23.24
Cycle Threshold ([6]; Input RNA = 10 ng, inhibitor 655 uM): 23.01
Cycle Threshold ([6]; Input RNA = 10 ng, inhibitor 1.3 mM): 23.02 and 23.04

Cc1cc(/N=N/c2ccc(S(=O)(=O)O)c3ccccc23)ccc1O [compound 45557]
Ki [1]: > 500 µM

cefsulodin [reference compound]
Ki [1]: 201 µM

C[C@H](CCC(=O)NCCC[N+](C)(C)CCCS(=O)(=O)[O-])[C@H]1CC[C@H]2[C@@H]3[C@H](O)C[C@@H]4C[C@H](O)CC[C@]4(C)[C@H]3C[C@H](O)[C@]12C [CHAPS]
effect on action of Specific Anti-RNase Cocktail against RNase A, 1, and T1 [2]: strengthened the action of Specific Anti-Rnase Cocktail against RNase A, 1, and T1.

O=C(Nc1cc(S(=O)(=O)O)cc2cc(S(=O)(=O)O)cc(O)c12)c1ccccc1 [compound 16169]
KI [1]: in-activeat 75uM

O=C(O)C1=NN(c2ccccc2)C(=O)\C1=C/C=C/C=C/C1C(=O)N(c2ccccc2)N=C1C(=O)O (stereo not drawn) [compound 102704, 4-[5-(3-carboxy-5-oxo-1-phe-nyl-1,5-dihydro-4H-pyra-zol-4-ylidene)-1,3-penta-dien-1-yl]-5-hy-droxy-1-phenyl-1H-pyra-zole-3-carboxylic acid]
DNase inhibition [4]: modestly inhibitory

N#CS.N=C(N)N [guanidine thiocyanate]
effect on Specific Anti-RNase Cocktail [2]: more inhibitory against different antibodies.

O=C(O)CC(O)(CC(=O)O)C(=O)O [citrate, reference compound]
protection of total RNA from degradation ([7]; 50 mm citrate, pancreas lysate 1:20,000, e. coli total rna, room temperature 4 min): significant protection

oligovinylsulfonic acid [OVA, reference compound]
protection of RNA from degradation ([7]; 6.25 mM OVA, pancreatic lysate 1:20,000, mouse liver total RNA, 25 C 4 min): help remedy RNA degradation

O=C(COc1ccc(I)cc1)c1c(O)cc(O)cc1O [compound 140553, 2-(4-iodo-phenoxy)-1-(2,4,6-tri-hydroxyphenyl)etha-none]
DNase inhibition [4]: little or no DNase inhibition

Cc1ccc(S(=O)(=O)Nc2ccc(Cc3ccc(NS(=O)(=O)c4ccc(C)cc4)c(C(=O)O)c3)cc2C(=O)O)cc1 [compound 180582, 3,3′-methylenebis(6-[4-meth-ylphenylsulfonyl]a-mino)benzoic acid]
DNase inhibition [4]: little or no DNase inhibition

Cc1ccccc1/N=N/c1ccc(/N=N/c2c(O)ccc3cc(S(=O)(=O)O)cc(S(=O)(=O)O)c23)c(C)c1 [compound 45601]
Ki [1]: 122 µM

Cc1ccc(C)n1-c1cccc(C(=O)O)c1 [compound 128773, 3-(2,5-dimethyl-1H-pyr-rol-1-yl)benzoic acid]
DNase inhibition [4]: modestly inhibitory

O=S(=O)(O)c1ccc(-c2ccc(/N=N/c3c(O)ccc4cc(S(=O)(=O)O)ccc34)cc2)cc1 [D726712]
Ki [1]: ~350 µM

NCCCCNCCCN [spermidine]
effect on anti-RNase A, 1, and T1 activity of Specific Anti-RNase Cocktail ([2]; 5 mM spermidine mixed with cocktail): 5 Mm spermidine mixed with Specific Anti-RNase Cocktail enhanced anti-RNase
